Reference: patent US10189796B2, “[4-(1,3,3-trimethyl-2-oxo-3,4-dihydro-1H-quinoxalin-7-yl)phenoxy]ethyloxy compound or salt thereof” (SANTEN PHARMACEUTICAL CO., LTD., priority 2015, dated 2019)

Key:
[1] = system: exorbital lacrimal gland-removed rat dry eye model; experiment: Dry eye syndrome (dry eye) model evaluation test; format: in vivo; settings: eye drop 5 μL four times a day
Description: In order to evaluate the treatment effect of the present compounds on corneal disorder accompanied by dry eye syndrome (dry eye), a treatment effect on corneal disorder in an exorbital lacrimal gland-removed rat dry eye model was investigated. This model was prepared in accordance with the method of Fujihara, et al. (Invest. Ophthalmol. Vis. Sci., 42(1): 96-100 (2001)). Incidentally, this effect was scored according to the method of Murakami et al. (New Ophthalmologist 21(1): 87-90 (2004)), the extent of corneal disorder was scored and the improvement ratio was calculated from the corneal disorder score of the base agent administered group (control group), the corneal disorder score of the test compound administered group and the corneal disorder score of the normal rat.
A base agent containing a general additive(s) was added to the test compound to prepare test compound suspensions with 0.03% (W/V) and 0.1% (W/V). In addition, a base agent was added to the commercially available drug A to prepare a diluted solution with 0.05% (V/V).
• 1) By using male SD rats, somnopentyl was administered to the rats to apply them general anesthesia, exorbital lacrimal glands were removed, and corneal disorder was induced over 8 weeks thereafter. • 2) The test compound suspension was eye-dropped (instillation dose: 5 μL/time) to both eyes four times a day for 14 days. Incidentally, the base agent was similarly eye-dropped to the administered group (control group), and the commercially available drug A and its diluted solution were similarly eye-dropped. • 3) Fourteen days after the start of eye dropping, the cornea was stained with fluorescein. For each of the upper part, the middle part and the lower part of the cornea, scores of the degree of staining with fluorescein were determined according to the following criteria, and an average value of the total of the scores was calculated. Incidentally, 0.5 was set as an intermediate value between each score of 0, 1, 2 and 3. <<Judgement Standard>>
1: Dyeing is sparse, and the dyed portions of each dot are separated
2: Dyeing is a middle degree and part of the dotted dyed portions is adjacent
3: Dyeing is dense, and the dyed portions of each point are almost adjacent
(Calculation Formula) Corneal disorder improvement ratio (%) of the test compound administered group=(Ao−Ax)/(Ao−An)×100 • Ao: Average value of corneal disorder score of the base agent administered group (control group) • Ax: Average value of corneal disorder score of the test compound administered group • An: Average value of corneal disorder score of normal rat (Test Result and Consideration)

[2] = system: carrageenin-caused conjunctivitis model of rats; experiment: Conjunctivitis model evaluation test; format: in vivo, rat; settings: 1% suspension, eye dropped 5 μL five times from 1 hour before to 3 hours after induction
Description: In order to evaluate an anti-inflammatory action of the present compound to conjunctivitis, an inhibitory effect on edema formation in a carrageenin-caused conjunctivitis model of rats was investigated. Incidentally, this effect was evaluated by calculating an edema formation inhibitory ratio from a weight of the edema in a base agent administered group (control group) and a weight of the edema in the test compound administered group.
A base agent containing a general additive(s) was added to the test compound to prepare test compound suspensions with 0.001% (W/V), 0.003% (W/V), 0.01% (W/V) and 1% (W/V). […]
Four hours after induction, rats under general anesthesia were sacrificed by decapitation method, conjunctival edema areas of both eyes were removed, and the weight of each was measured. The edema formation inhibitory ratio was calculated from the average value of the weight of the edema.
Based on the average value of the weight of the edema of the base agent administered group (control group), the edema formation inhibitory ratio of the test compound suspension eye drop group was calculated by the following calculation formula. […]

Row | Compound | Corneal disorder improvement ratio (%) After 14 days eye dropping ([1]; 0.03%) [%] | Corneal disorder improvement ratio (%) After 14 days eye dropping ([1]; 0.1%) [%] | Edema formation inhibitory ratio (%) [2] [%]
1 | COc1cc(OC[C@H](C)OC(=O)CN(C)C)ccc1-c1ccc2c(c1COc1cc(F)ccc1C)N(C)C(=O)C(C)(C)N2 [Compound 11-1, (S)-7-[4-[2-(N,N-dimethylaminoacetoxy)propyl]oxy-2-methoxyphenyl]-8-(5-fluoro-2-methylphenoxymethyl)-1,3,3-trimethyl-3,4-dihydro-1H-quinoxalin-2-one] | 33 | 64 | 
2 | COc1ccc(O)cc1-c1ccc2c(c1COc1cc(F)ccc1C)N(C)C(=O)C(C)(C)N2 [Control compound C, 8-(5-fluoro-2-methylphenoxymethyl)-7-(5-hydroxy-2-methoxyphenyl)-1,3,3-trimethyl-3,4-dihydro-1H-quinoxalin-2-one] |  |  | 14
